Our source for the T/C values is PubChem BioAssay AID330 (DTP/NCI, 2004).

This assay concerns P388 leukemia ip, CD2F1 mice, survival T/C. Kind of assay: NCI In Vivo Anticancer Drug Screen. Data for tumor model P388 Leukemia (intraperitoneal) in CD2F1 (CDF1) mice. Conditions: endpoint: median survival time, higher = longer survival. The essentials:
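Mice carrying the transplanted tumor received test compound or vehicle. Survival was recorded in each group, and the value is the treated-group measurement divided by that of the vehicle-treated control group.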

The mark [1] stands for this setting: dose: 50.0 mg/kg/injection, schedule: Q01DX009 (ip), vehicle: saline with Tween-80.
[2] abbreviates: dose: 100.0 mg/kg/injection, schedule: Q01DX009 (ip), vehicle: saline with Tween-80.
Setting [3] is: dose: 50.0 mg/kg/injection, schedule: Q01DX005 (ip), vehicle: saline with Tween-80.
The mark [4] stands for this setting: dose: 100.0 mg/kg/injection, schedule: Q01DX005 (ip), vehicle: saline with Tween-80.
Setting [5] is: dose: 200.0 mg/kg/injection, schedule: Q01DX005 (ip), vehicle: saline with Tween-80.
The mark [6] stands for this setting: dose: 12.5 mg/kg/injection, schedule: Q01DX009 (ip), vehicle: saline.
The mark [7] stands for this setting: dose: 50.0 mg/kg/injection, schedule: Q01DX009 (ip), vehicle: saline.
The mark [8] stands for this setting: dose: 100.0 mg/kg/injection, schedule: Q01DX009 (ip), vehicle: saline.
[9] abbreviates: dose: 200.0 mg/kg/injection, schedule: Q01DX009 (ip), vehicle: saline.
[10] abbreviates: dose: 25.0 mg/kg/injection, schedule: Q01DX009 (ip), vehicle: saline.
Setting [11] is: dose: 50.0 mg/kg/injection, schedule: Q01DX009 (ip), vehicle: Klucel (hydroxypropylcellulose) (HPC).
Where [12] appears, read: dose: 100.0 mg/kg/injection, schedule: Q01DX009 (ip), vehicle: Klucel (hydroxypropylcellulose) (HPC).
The mark [13] stands for this setting: dose: 200.0 mg/kg/injection, schedule: Q01DX009 (ip), vehicle: Klucel (hydroxypropylcellulose) (HPC).
The mark [14] stands for this setting: dose: 60.0 mg/kg/injection, schedule: Q01DX005 (ip), vehicle: saline with Tween-80.
[15] abbreviates: dose: 120.0 mg/kg/injection, schedule: Q01DX005 (ip), vehicle: saline with Tween-80.

Each structure is given as a SMILES string. Values joined by “and” are separate entries in the source; they are usually repeats but may differ in a detail not shown here. Equal entries are not always repeated. Toxic doses and inconclusive results are not listed.

For the molecule `CCOc1ccc(Nc2ccc(/C(=C3\C=CC(=[N+](CC)Cc4cccc(S(=O)(=O)O)c4)C=C3C)c3ccc(N(CC)Cc4cccc(S(=O)(=O)O)c4)cc3C)cc2)cc1`, the T/C by setting is: under setting [1], 98 % of control; under setting [2], 97 % of control.

As to `O/N=C1/C(=N/O)N(c2ccccc2)CCN1c1ccccc1`, the T/C is 99 % of control under setting [3], 100 % of control under setting [4] and 92 % of control under setting [5].

On to `Cc1c2ccncc2c(C)c2c1[nH]c1ccc(O)cc12`, for which the T/C is 111 % of control (dose: 6.25 mg/kg/injection, schedule: Q01DX009 (ip), vehicle: saline); 150 % of control (dose: 6.25 mg/kg/injection, schedule: Q01DX009 (ip), vehicle: suspension in saline); 169 % of control under setting [6]; 167 % of control (dose: 12.5 mg/kg/injection, schedule: Q01DX009 (ip), vehicle: suspension in saline).

As to `CS/C(=N/S(=O)(=O)c1ccccc1)NNC(=S)Nc1ccc(C(C)C)cc1`, the T/C under setting [7] was 94 % of control, the T/C under setting [8] is 97 % of control and the T/C under setting [9] is 97 % of control.

On to `O=[N+]([O-])c1ccc(N2CCN(CCO)CC2)c2c1no[n+]2[O-]`, for which the T/C runs as follows: (dose: 3.75 mg/kg/injection, schedule: Q01DX009 (ip), vehicle: saline) 98 % of control and 100 % of control and 86 % of control; (dose: 7.5 mg/kg/injection, schedule: Q01DX009 (ip), vehicle: saline) 100 % of control and 97 % of control; (dose: 15.0 mg/kg/injection, schedule: Q01DX009 (ip), vehicle: saline) 103 % of control (2×) and 90 % of control; (dose: 30.0 mg/kg/injection, schedule: Q01DX009 (ip), vehicle: saline) 100 % of control and 101 % of control and 95 % of control; (dose: 50.0 mg/kg/injection, schedule: Q01DX009 (ip), vehicle: suspension in saline) 109 % of control.

For the molecule `CN1CC2CN(C)CC(C1)C2(O)c1ccccc1` (stereo not given), the T/C by setting is: under setting [6], 97 % of control; under setting [10], 98 % of control.

Consider `CC(=O)OC(C)C1C2=C(C(=O)CC1(C)O)C(=O)c1c(ccc(-c3ccc4c(c3O)C(=O)C3=C(C4=O)C(C(C)OC(C)=O)C(C)(O)CC3=O)c1O)C2=O` (stereo not given), for which the T/C was 122 % of control (dose: 3.13 mg/kg/injection, schedule: Q01DX009 (ip), vehicle: saline with Tween-80) and 119 % of control (dose: 6.25 mg/kg/injection, schedule: Q01DX009 (ip), vehicle: saline with Tween-80).

`CCOP(=S)(N1CC1(C)C)N1CC1(C)C` (stereo not given): the T/C runs as follows: under setting [10], 109 % of control; under setting [7], 109 % of control; under setting [2], 154 % of control; under setting [8], 109 % of control; (dose: 100.0 mg/kg/injection, schedule: Q04DX003 (ip), vehicle: saline with Tween-80) 109 % of control; (dose: 264.0 mg/kg/injection, schedule: Q04DX003 (ip), vehicle: saline with Tween-80) 172 % of control. Where the note is “dose: 400.0 mg/kg/injection, schedule: Q04DX003 (ip), vehicle: saline with Tween-80”, the T/C was 168 % of control and 204 % of control.

In the case of `Cl/C(=C\c1ccccc1)c1nc2ccccc2nc1Cl`, the T/C under setting [11] is 96 % of control, the T/C under setting [12] is 89 % of control and the T/C under setting [13] was 92 % of control.

Regarding `CNC(=S)ON1CCCCC1`, the T/C reads like this: under setting [2], 111 % of control; (dose: 200.0 mg/kg/injection, schedule: Q01DX009 (ip), vehicle: saline with Tween-80) 108 % of control.

As for `O=C(/C=N/O)Nc1cccnc1`, the T/C is, setting by setting: under setting [11], 109 % of control; under setting [12], 109 % of control; under setting [13], 109 % of control.

`COc1ccc(/C(CC2(O)C(=O)Nc3c(C)cc(Cl)cc32)=N\NC(=O)C(=O)NN)cc1` (stereo not given): the T/C by setting is: under setting [3], 106 % of control; under setting [4], 98 % of control; under setting [5], 96 % of control.

With `Cc1nccn1Cc1ccc(Cl)cc1Cl`, the T/C under setting [14] is 95 % of control and the T/C under setting [15] was 95 % of control.

Take `O=Cc1cc(/C=N/Nc2ccccc2C(=O)O)nc2[nH]c(=O)ccc12`: the T/C by setting is: (dose: 100.0 mg/kg/injection, schedule: Q04DX002 (ip), vehicle: Klucel (hydroxypropylcellulose) (HPC)) 107 % of control; (dose: 200.0 mg/kg/injection, schedule: Q04DX002 (ip), vehicle: Klucel (hydroxypropylcellulose) (HPC)) 102 % of control; (dose: 400.0 mg/kg/injection, schedule: Q04DX002 (ip), vehicle: Klucel (hydroxypropylcellulose) (HPC)) 101 % of control.

`CC(C)[S][Pb]([c]1ccccc1)([c]1ccccc1)[c]1ccccc1`: the T/C was 116 % of control (dose: 1.25 mg/kg/injection, schedule: Q01DX009 (ip), vehicle: gum acacia); 118 % of control (dose: 2.5 mg/kg/injection, schedule: Q01DX009 (ip), vehicle: gum acacia); 111 % of control (dose: 5.0 mg/kg/injection, schedule: Q01DX009 (ip), vehicle: gum acacia); 97 % of control (dose: 6.25 mg/kg/injection, schedule: Q04DX003 (ip), vehicle: gum acacia); 104 % of control (dose: 12.5 mg/kg/injection, schedule: Q04DX003 (ip), vehicle: gum acacia).

Regarding `CC(C)COP(=O)([O-])OCC[N+](C)(C)C`, the T/C by setting is: (dose: 100.0 mg/kg/injection, schedule: Q01DX001 (ip), vehicle: Klucel (hydroxypropylcellulose) (HPC)) 104 % of control; (dose: 200.0 mg/kg/injection, schedule: Q01DX001 (ip), vehicle: Klucel (hydroxypropylcellulose) (HPC)) 98 % of control; (dose: 400.0 mg/kg/injection, schedule: Q01DX001 (ip), vehicle: Klucel (hydroxypropylcellulose) (HPC)) 100 % of control.

As for `OC1CN(CCCCCCN2CC(O)ON2)NO1` (stereo not given), the T/C reads like this: under setting [7], 93 % of control; under setting [8], 93 % of control; under setting [9], 97 % of control.

Turning to `COc1cc2cc[n+]3cc4c(ccc5ccccc54)cc3c2cc1OC`, the T/C runs as follows: (dose: 6.25 mg/kg/injection, schedule: Q04DX003 (ip), vehicle: distilled water + Tween-80) 166 % of control; (dose: 12.5 mg/kg/injection, schedule: Q04DX003 (ip), vehicle: distilled water + Tween-80) 158 % of control; (dose: 12.5 mg/kg/injection, schedule: Q04DX003 (ip), vehicle: water) 152 % of control; (dose: 25.0 mg/kg/injection, schedule: Q04DX003 (ip), vehicle: distilled water + Tween-80) 177 % of control.

In the case of `CCOCCOCCOC(C)Oc1ccc(Br)cc1` (stereo not given), the T/C reads like this: under setting [14], 104 % of control; under setting [15], 100 % of control; (dose: 240.0 mg/kg/injection, schedule: Q01DX005 (ip), vehicle: saline with Tween-80) 104 % of control.

In the case of `CCCCCCC(=O)/C=C/c1cc(Cl)cc(Cl)c1OCOC`, the T/C is, setting by setting: under setting [12], 116 % of control; under setting [13], 100 % of control.

Regarding `CCC(SC)(SC)C(=O)N(C)c1ccccc1`, the T/C was 100 % of control (dose: 25.0 mg/kg/injection, schedule: Q01DX009 (ip), vehicle: saline with Tween-80); 104 % of control under setting [1]; 100 % of control under setting [2].

On to `C[N+](C)(C)CCCO`, for which the T/C by setting is: under setting [6], 98 % of control; under setting [10], 94 % of control; under setting [7], 93 % of control.
